Data as given in patent publication US20040214767A1, “Regulation of follicular development and ovulation by cytoskeletal genes and gene products” (priority 2002, published 2004).

System: rat primary granulosa cells
Experiment: Effects of CHX and alpha-amanitin on FSH/forskolin-induced expression of cytoskeletal genes in granulosa cells
Assay type: cell-based
Settings: for β-tubulin mRNA: with or without FSH
Experimental: FIG. 8. Effects of CHX and alpha-amanitin treatment on the FSH/forskolin-induced expression of the cytoskeletal genes. Granulosa cells were isolated from the ovaries of 170 estradiol primed 24 day old immature rats. They were cultured in the medium containing FSH (30 ng/ml) or forskolin (10 microM, FSK) in the presence or absence of CHX (10 μg/ml) for 6 hours (A) or 24 hours (B). In addition, the 24 hours cells were also cultured, likewise, in the presence of alpha-amanitin (30 microg/ml, AMA). Total RNA was isolated and analyzed for mRNAs of TM4, Khc, beta-tubulin and inhibin alpha as described in the description of FIG. 7. Values are the meanfold increase over control (no treatment)±SE. Values were pooled from two separate experiments.
As a step to determine the mechanisms of the FSH-responsive mRNA expression, the granulosa cells were treated with FSH in the presence or absence of a translation inhibitor, CHX, and a transcription inhibitor, alpha amanitin.
Eighteen to twenty-one day old Sprague-Dawley female pups with nursing mothers were purchased from Harlan Breeding Company (Indianapolis, Ind.) and housed in a photoperiod of 14 h light/10 h darkness with light on at 0500 h. For in situ hybridization, rats were injected subcuteneoulsy with 15 IU PMSG (Sigma) in 0.1 ml PBS on 22-23 days of age. Depending on the experiments, PMSG 48 hours-primed rats were injected i.p. with 10 IU hCG. Ovaries were frozen on dry ice immediately after excision and stored at −80 C. […] Ovaries were collected in ice-cold serum-free 4F medium consisting of 15 mM HEPES (pH 7.4), 50% DMEM and 50% Ham's F12 with bovine transferrin (5 micro g/ml), human insulin (2 mg/ml), hydrocortisone (40 ng/ml) and antibiotics, and processed as previously described. Cells were washed three times, resuspended in 4F, plated on serum-coated. Six-well plate (1×10^6 cells in 2 ml per well), and incubated at 37 C for 16 hours. FSH (30 ng/ml) or forskolin (10 micro M) was added to the cell cultures. For the inhibition of protein synthesis or transcription, 10 micro g/ml of cycloheximide (CHX) or alpha-amanitin (30 microg/ml) was, respectively, added 1 h before hormone treatment.
RT-PCR was performed essentially as previously described (Ko, et al., Endocrinology 140:5185-5194. Total RNA (1-2 micro g) was reverse-transcribed at 37 C in a 20 micro L reaction volume using random hexamer (500 ng) and MMLV reverse transcriptase (10 units) (New England BioLabs, Boston, Mass.). Complementary DNA (cDNA) samples (2 micro L) were added to a total 25 micro L reaction mix containing the primers (200 ng each), 0.4 mM dNTP mixture, and Taq DNA polymerase (2.5 U) in 1×PCR buffer (10 mM Tris, pH 8.3, 50 mM KCl, 1.5 mM MgCl2, 0.01% gelatin). All PCR amplifications were carried out for 20, 25 or 30 cycles on a MJ Research Minicycler. PCR products were separated by 2% agarose gel electrophoresis, stained with SYBR® Green I (Molecular Probes), and visualized by phosphoimaging technology (FLA-2000; Fuji, Stamford, Conn.). The following primers were used in the present studies: TM4 (5′-gag aac tcc tga ctg aac tgg acg-3′(SEQ ID NO. 1) and 5′-cca tat tcc ctg ctg agc gta g-3′(SEQ ID NO. 2), 282 bp), Khc (5′-aac tga atc gcc tcc aag cag-3′ and 5′-cga act ggc gag aac tgg atg-3′, 195 bp), β-tubulin (5′-cct gct cat cag caa gat tcg-3′(SEQ ID NO. 3) and 5′-gtg gtg agc tta agg gta cgg, (SEQ ID NOI 4) 210 bp), and inhibin alpha subunit (5′-gct ttc cct ctg ttg acc cac-3′ (SEQ ID NO. 5) and 5′-aga tgt tga ggg cag ctc gat-3′, (SEQ ID NO. 6) 255 bp). L-19 (5′-ctg aag gtc aaa ggg aat gtg-3 (SEQ ID NO. 7) and 5′-gga cag agt ctt gat gat ctc, (SEQ ID NO. 8) 194 bp) oligo nucleotide primers were used to amplify ribosomal protein L-19 as an internal control.

[1] = CHX, cells treated with FSH for 24 hours
[2] = CHX, cells treated with FSH for six hours
[3] = cells treated with FSH for 24 hours
[4] = alpha-amanitin 30 microg/ml, 24 hours

Row | SMILES | β-tubulin mRNA level (24 hours FSH in the presence of CHX) | β-tubulin mRNA (CHX 10 μg/ml, 6 hours) | TM4 mRNA level [1] | inhibin alpha mRNA level [1] | Khc mRNA level [2] | TM4 mRNA level [2] | inhibin alpha mRNA level [2] | effect on Khc mRNA level [3] | FSH-induced mRNA expression of all of the cytoskeletal and inhibin alpha genes [4] | β-tubulin mRNA [4]
1 | C[C@@H]1C[C@@H]([C@H](O)CC2CC(=O)NC(=O)C2)C(=O)[C@@H](C)C1 [CHX, cycloheximide] | decreased to apparent basal level | could not be detected | slightly enhancing | substantially suppressing | lowered the Khc mRNA level, though not completely | increased | increased | marginal |  | 
2 | CC[C@H](C)[C@@H]1NC(=O)CNC(=O)[C@@H]2Cc3c([nH]c4cc(O)ccc34)[S+]([O-])C[C@@H](NC(=O)CNC1=O)C(=O)N[C@@H](CC(N)=O)C(=O)N1C[C@H](O)C[C@H]1C(=O)N[C@@H]([C@@H](C)[C@@H](O)CO)C(=O)N2 (stereo partly drawn) [alpha amanitin, alpha-amanitin] |  |  |  |  |  |  |  | marginal | blocked | blocked both the maintenance and FSH dependent increase
